Laboratory results: PubChem BioAssay (NCI)
Values joined by “and” are separate entries in the source; they are usually repeats but may differ in a detail not shown here. Equal entries are not always repeated.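 Protocol summary: plate cells (96-well), add compound at 5 concentrations, incubate 48 h, interpolate endpoints linearly. At the GI50, growth is halved. TGI: concentration producing complete growth inhibition.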

Columns and labels:
Experiment in all cases: DTP human tumour cell line panel, 48 h
HCC-2998 colon = system: HCC-2998 colon
CAKI-1 renal = system: CAKI-1 renal
HOP-62 NSCLC = system: HOP-62 NSCLC
OVCAR-5 ovarian = system: OVCAR-5 ovarian
COLO 205 colon = system: COLO 205 colon
SK-MEL-28 melanoma = system: SK-MEL-28 melanoma
EKVX NSCLC = system: EKVX NSCLC
LOX IMVI melanoma = system: LOX IMVI melanoma
MDA-N = system: MDA-N
NCI-H522 lung = system: NCI-H522 lung

CC(=O)OCc1c(O)c2c(c(O)c1COC(C)=O)C(=O)C=CC2=O
TGI (HCC-2998 colon): 31.3 µM
TGI (CAKI-1 renal): 21.8 µM
TGI (HOP-62 NSCLC): 37.4 µM
TGI (OVCAR-5 ovarian): 30.9 µM
TGI (COLO 205 colon): 10.5 µM
TGI (SK-MEL-28 melanoma): 22.8 µM
TGI (EKVX NSCLC): 32 µM

C=C1C(O)CC[C@]2(C)C1C1OC(C)(C)O[C@]13CC(=O)C(C)=C([C@H]1OC(C)(C)OC12)C3(C)C (some centres undefined)
TGI (HCC-2998 colon): > 100 µM
TGI (CAKI-1 renal): > 100 µM
TGI (HOP-62 NSCLC): > 100 µM
TGI (OVCAR-5 ovarian): > 100 µM
TGI (COLO 205 colon): > 100 µM
TGI (LOX IMVI melanoma): > 100 µM
TGI (SK-MEL-28 melanoma): > 100 µM
TGI (EKVX NSCLC): > 100 µM

COc1ccc(N(C(=O)Nc2ccc(Cl)c(Cl)c2)C2c3cccn3C(=O)N2c2ccc(Cl)c(Cl)c2)cc1 (centres undefined)
TGI (HCC-2998 colon): > 100 µM
TGI (MDA-N): > 100 µM
TGI (CAKI-1 renal): > 100 µM
TGI (OVCAR-5 ovarian): > 100 µM
TGI (COLO 205 colon): > 100 µM
TGI (LOX IMVI melanoma): > 100 µM
TGI (SK-MEL-28 melanoma): > 100 µM
TGI (EKVX NSCLC): > 100 µM

CCOC(=O)c1nc2cc(C(F)(F)F)ccc2nc1Nc1ccc(C(=O)NC(C(=O)OCC)C(=O)OCC)cc1
TGI (HCC-2998 colon): > 100 µM
TGI (CAKI-1 renal): 37 µM
TGI (HOP-62 NSCLC): 41 µM
TGI (OVCAR-5 ovarian): > 100 µM
TGI (COLO 205 colon): > 100 µM
TGI (LOX IMVI melanoma): > 100 µM
TGI (NCI-H522 lung): 40.3 µM
TGI (SK-MEL-28 melanoma): 69.2 µM
TGI (EKVX NSCLC): 66.2 µM

C=Cc1ccccc1C1(O)C=CC(OC)(OC)C=C1
TGI (HCC-2998 colon): 33.4 µM
TGI (CAKI-1 renal): 18.4 µM
TGI (HOP-62 NSCLC): 19.5 µM
TGI (OVCAR-5 ovarian): 20.2 µM
TGI (COLO 205 colon): 25.9 µM
TGI (NCI-H522 lung): 23.9 µM
TGI (SK-MEL-28 melanoma): 20.8 µM
TGI (EKVX NSCLC): 50.5 µM

CCCSc1nc(-c2ccc(OC)cc2)c(C#N)c(=O)n1C1OC(COC(C)=O)C(OC(C)=O)C(OC(C)=O)C1OC(C)=O (centres undefined)
GI50 (HOP-62 NSCLC): > 100 µM and 30.1 µM
TGI (HOP-62 NSCLC): > 100 µM
GI50 (OVCAR-5 ovarian): > 100 µM and 21.2 µM
TGI (OVCAR-5 ovarian): > 100 µM and 48.8 µM
TGI (COLO 205 colon): > 100 µM
TGI (NCI-H522 lung): > 100 µM
TGI (SK-MEL-28 melanoma): > 100 µM

COc1cc2c(c(O)c1OC)C(=O)C(Cc1ccc(O)cc1)CO2 (centres undefined)
TGI (CAKI-1 renal): 75.9 µM
TGI (HOP-62 NSCLC): > 100 µM
TGI (OVCAR-5 ovarian): > 100 µM
TGI (COLO 205 colon): > 100 µM
TGI (LOX IMVI melanoma): > 100 µM
TGI (NCI-H522 lung): 15.3 µM
TGI (SK-MEL-28 melanoma): > 100 µM

C1=C\SS/C=C\SS/1
TGI (HCC-2998 colon): > 100 µM
TGI (MDA-N): > 100 µM
TGI (HOP-62 NSCLC): > 100 µM
TGI (OVCAR-5 ovarian): > 100 µM
TGI (COLO 205 colon): > 100 µM
TGI (LOX IMVI melanoma): > 100 µM
TGI (SK-MEL-28 melanoma): > 100 µM
TGI (EKVX NSCLC): > 100 µM

c1c2c(cc(-n3nnc4c3CCCCCC4)c1-n1nnc3c1CCCCCC3)CCCCCC2
TGI (HCC-2998 colon): 29.5 µM
TGI (CAKI-1 renal): 7.17 µM
TGI (HOP-62 NSCLC): 39 µM
TGI (OVCAR-5 ovarian): 30 µM
TGI (LOX IMVI melanoma): 26.6 µM
TGI (NCI-H522 lung): 1.85 µM
TGI (SK-MEL-28 melanoma): 33.9 µM
TGI (EKVX NSCLC): 23.6 µM

CCC(C(=O)C(=O)OC)P1(=O)OC(C)(C)CN1C(C)(C)C (centres undefined)
TGI (HCC-2998 colon): > 100 µM
TGI (CAKI-1 renal): > 100 µM
TGI (HOP-62 NSCLC): > 100 µM
TGI (OVCAR-5 ovarian): > 100 µM
TGI (COLO 205 colon): > 100 µM
TGI (LOX IMVI melanoma): > 100 µM
TGI (SK-MEL-28 melanoma): > 100 µM
TGI (EKVX NSCLC): > 100 µM

C=C1c2nc3ccccc3n2C=C(c2ccc(Cl)cc2)N1c1ccc(OC)cc1
TGI (HCC-2998 colon): 28.3 µM
TGI (MDA-N): 45.7 µM
TGI (CAKI-1 renal): 19.1 µM
TGI (OVCAR-5 ovarian): 35 µM
TGI (COLO 205 colon): > 100 µM
TGI (LOX IMVI melanoma): > 100 µM
TGI (NCI-H522 lung): 18.5 µM
TGI (SK-MEL-28 melanoma): 22.2 µM
TGI (EKVX NSCLC): 25.9 µM

COc1nc(C#CC(C)(C)C)nc(OC)n1
TGI (MDA-N): > 100 µM
TGI (CAKI-1 renal): 51.9 µM
TGI (HOP-62 NSCLC): > 100 µM
TGI (OVCAR-5 ovarian): 42.5 µM
TGI (COLO 205 colon): > 100 µM
TGI (LOX IMVI melanoma): 61.4 µM
TGI (NCI-H522 lung): 49.3 µM
TGI (SK-MEL-28 melanoma): > 100 µM
TGI (EKVX NSCLC): > 100 µM

CC(=O)c1cnc2oc3ccc(O)cc3c2c1-c1ccccc1
TGI (HCC-2998 colon): > 100 µM
TGI (MDA-N): > 100 µM
TGI (CAKI-1 renal): > 100 µM
TGI (OVCAR-5 ovarian): > 100 µM
TGI (COLO 205 colon): > 100 µM
TGI (LOX IMVI melanoma): > 100 µM
TGI (SK-MEL-28 melanoma): > 100 µM
TGI (EKVX NSCLC): > 100 µM
